Measured values as given in US4092426A, “Novel aminobenzoic acid derivatives, process for preparing the same and pharmaceutical composition containing the same” (Chugai Seiyaku Kabushiki Kaisha, priority 1975, dated 1978).
Structures can show the parent of a compound that is named as a salt.

Columns and labels:
AH-13 = assay: Antitumor Activity to Transplanted Cancer Cells (AH-13); format: in vivo, Donryu strain female rats; settings: for Average Survival Terms: control 7.1
Text: As test animals, Donryu strain female rats (8 week old) which were divided into groups of 10 members each were used. Each rat was intraperitoneally administered with test compound, disodium salt of N-2'-carboxyphenyl-4-chloroanthranilic acid, once a day for 10 days from 16 days before the inoculation of the tumor cells disclosed hereinbelow. Sixteen days after the first administration of the test compound, each rat was intraperitoneally inoculated with 10^6 tumor cells identified as AH-13 to induce cancer of abdominal dropsy.

lymphocites [1] = assay: Activity for Promoting Blastogenesis of Lymphocites (in vitro); format: cell-based, C3 H/He strain male mice; settings: 10^-1 to 10^-2 μg/ml
Method: In this Experiment, influence of the test compound disodium salt of N-2'-carboxyphenyl-4-chloroanthranilic acid on blastogenesis of lymphocites was studied by the use of spleen cells and lymphonoid cells of mouse and rat. For in vitro test, C3 H/He strain male mice and for in vivo Wistar-Imamichi strain male rats were used respectively. Concanavallin A manufactured by Sigma was used as the blastogenetic factor in the in vitro test and lymphocites were cultured by the use of medium of RPMI 1640 manufactured by Grand Island Biological Co. The cultivation of the lymphocites was carried out in the medium at 37° C in a 5% carbon dioxide atmosphere for about 48 hours and after the addition of 0.5 μCi/ml of ^3 H-thymidine, the cells in the medium were incubated for 16 hours and then the lymphocites were separated. The radioactivity of the separated cells was measured by a scintillation counter and the value was evaluated as an indicator of blastogenetic degree. For the in vivo test, the in vitro test was repeated except that each rat was orally administered with the test compound in a dose of 5 or 50 mg/kg. In this case, the rats administered with the test compound were divided into groups of 3 members each and the cells to be cultivated from the rats in each group were placed under the same cultivation conditions. […]

triglyceride in liver = assay: Action for decreasing triglyceride in liver (ethanol-induced); format: in vivo, Sprague Dawley strain female rats; settings: rat, oral 100 mg/kg, 30 min before ethanol 6 g/kg; 24 h; 100 mg/kg
Method: Sprague Dawley strain female rats each weighing 170 - 200 g which had been fasted for 15 hours were divided into groups of 4 rats each. The rats were orally administered a different test compound in a dose of 100 mg/kg, and 30 minutes after the administration, orally administered ethanol in a dose of 6 g/kg. Twenty-four hours after the administration of ethanol, the liver of each rat was taken out and neutral lipid level in the liver was measured in a conventional manner to calculate the ratio of preventing an increase in triglyceride content in the liver. For a control group, ethanol and, for the other control group, a glucose aqueous solution equivalent in calorific value to the same amount of ethanol were used and the same manner as those of test groups, and for the positive control group, commercially available 2-mercaptopropionylglycine was used instead of the test compound.
*The % prevention was calculated by the following

[2] = system: Pseudomonas aeruginosa Pa-II; assay: Activity for Protecting from Infection by Bucillus Pyocyaneous; format: in vivo; settings: oral 2 mg/head; for Survival Terms: individual animals
Text: As test animals, ddY strain male mice (5 week old) which were divided into groups of 7 members each were used. Each mouse was intraperitoneally inoculated with bucillus pyocyaneous, Pseudomonas aeruginosa Pa-II.

neutrocyte = assay: Activity for Improving Bacteriocidal Ability in Neutrocyte (NBT test); format: in vivo, JW/CSK strain white male rabbits; settings: rabbit, oral 100 mg/kg
Method: As test animals, JW/CSK strain white male rabbits weighing 3.0 - 3.9 kg were used, dividing them into groups of 5 members each. Each rabbit was orally administered with the test compound, disodium salt of N-2'-carboxyphenyl-4-chloroanthranilic acid in a dose of 100 mg/kg, and 24 hours after the administration, neutrocyte in the blood of the peripheral vessels were reacted with nitrobluetetrazorium (NBT) and then the proportion of cells positive to formazan was measured by a microscope. As the control, the value obtained from the same animal just 3 days before the administration of the test compound was referred to.

Sarcoma-180 = assay: growth of Sarcoma-180 tumor cells in vitro; format: cell-based
[3] = system: Salmonella enteritidis TO-1; assay: Activity for Protecting from Infection by Salmonellae, with streptomycine; format: in vivo; settings: mouse; oral 2 mg/head; with streptomycine 0.5 mg/head s.c.
Method: As test animals, ddY strain male mice (5 week old) which were divided into groups of 7 members each were used. Each mouse was intraperitoneally inoculated with 10^5 Salmonella enteritidis TO-1, and 3 hours after the inoculation, was subcutaneously administered one shot of streptomycine in a dose of 0.5 mg/head.

[4] = system: Pseudomonas aeruginosa Pa-II; assay: Activity for Protecting from Infection by Bucillus Pyocyaneous, with carbenicillin; format: in vivo; settings: mouse; with carbenicillin
Method: As test animals, ddY strain male mice (5 week old) which were divided into groups of 9 members each were used. Each mouse was intraperitoneally administered with 10^6 Pseudomonas aeruginosa Pa-II, and 1.5 hours after the administeration, subcutaneously administered one shot of carbenicillin, an antibiotic. The test compound, disodium salt of N-2'-carboxyphenyl-4-chloroanthranilic acid, was orally administered once a day in a dose of 2 mg/head one and two days before the inoculation, respectively. The activity of the test compound was evaluated by observing the test animals for 54 hours after the inoculation.

Adjuvant arthritis = assay: Activity for Treating Adjuvant Arthritis (hind paw volume); format: in vivo, Sprague Dawley strain male rats
Method: Sprague Dawley strain male rats (eight week old) were used as test animals. […] Seventeen days after the sensitization, degree of swelling of hind pawls of each rat was determined by measuring the volume of its hind paws and the rats were divided into groups of 10 members each so that average degree of swelling for each of the groups was approximately equal. Each group of rats was orally administered with the test compound, disodium salt of N-2'-carboxyphenyl-4-chloroanthranilic acid, in a dose as shown in Table 5 once a day for a week starting on the seventeenth day after the sensitization. Degree of swelling of hind paws of each rat was measured every second or third day after the completion of the administration of the test compound till the 31st day from the sensitization. The reduction in volume of the hind paws was used as an index to evaluate the pharmacological activity.
The results of the statistical test which was made on the values obtained on the 24th and 31st days from the sensitization are shown in Table 5.

lymphocites [5] = assay: Activity for Promoting Blastogenesis of Lymphocites (in vivo); set-up: species or system Wistar-Imamichi strain male rats
Method: In this Experiment, influence of the test compound disodium salt of N-2'-carboxyphenyl-4-chloroanthranilic acid on blastogenesis of lymphocites was studied by the use of spleen cells and lymphonoid cells of mouse and rat. For in vitro test, C3 H/He strain male mice and for in vivo Wistar-Imamichi strain male rats were used respectively. Concanavallin A manufactured by Sigma was used as the blastogenetic factor in the in vitro test and lymphocites were cultured by the use of medium of RPMI 1640 manufactured by Grand Island Biological Co. The cultivation of the lymphocites was carried out in the medium at 37° C in a 5% carbon dioxide atmosphere for about 48 hours and after the addition of 0.5 μCi/ml of ^3 H-thymidine, the cells in the medium were incubated for 16 hours and then the lymphocites were separated. The radioactivity of the separated cells was measured by a scintillation counter and the value was evaluated as an indicator of blastogenetic degree. For the in vivo test, the in vitro test was repeated except that each rat was orally administered with the test compound in a dose of 5 or 50 mg/kg. In this case, the rats administered with the test compound were divided into groups of 3 members each and the cells to be cultivated from the rats in each group were placed under the same cultivation conditions. The results of the experiments are shown in FIG. 4 (in vitro) and FIG. 5 (in vivo), respectively.

O=C(O)c1ccccc1Nc1cc(Cl)ccc1C(=O)O [disodium salt of N-2'-carboxyphenyl-4-chloroanthranilic acid]
T/C (AH-13; 50 mg/kg i.p.): 163%
host-mediated antitumor activity (AH-13) (AH-13; 50 mg/kg i.p.): exhibits host-mediated antitumor activity
Average Survival Terms (AH-13; 50 mg/kg i.p.): 11.6 days
T/C (AH-13; 100 mg/kg i.p.): 103%
Average Survival Terms (AH-13; 100 mg/kg i.p.): 7.3 days
T/C (AH-13; 200 mg/kg i.p.): 97%
Average Survival Terms (AH-13; 200 mg/kg i.p.): 6.9 days
activity of Concanavallin A (blastogenesis of lymphocites) (lymphocites [1]): improved the activity of Concanavallin A
% Prevention (of increase in triglyceride content in the liver) (triglyceride in liver): 63.6%
Survival Terms ([2]; 2 × 10^4 bacteria/head, mouse, S: survival at 54 hours): S,S,S,S,S and S,S
Dead Animal/Test Animal ([2]; 2 × 10^4 bacteria/head, control 1/7): 0/7
activity for protecting from the bacterial infection ([2]; 2 × 10^5 bacteria per head): activity of the test compound for protecting from the bacterial infection was observed
Survival Terms ([2]; 2 × 10^5 bacteria/head, mouse, S: survival at 54 hours): S,S
Dead Animal/Test Animal ([2]; 2 × 10^5 bacteria/head, control 6/7): 1/7
Survival Terms ([2]; 2 × 10^6 bacteria/head, mouse): 29,29 hours
Dead Animal/Test Animal ([2]; 2 × 10^6 bacteria/head, control 7/7): 7/7
effect on bacillary toxin ([2]; mouse): acts to lower the bacillary toxin
proportion of neutrocyte cells positive to formazan (neutrocyte): significantly increased
NBT Value (neutrocyte; 24 h after, before treatment 11.4 ± 1.8, P<0.05, Average ± Standard Deviation): 33.3 ± 7.8%
direct antitumor activity on Sarcoma-180 cells (Sarcoma-180; directly on the cells): no antitumor activity directly on the cells
growth of Sarcoma-180 cells in vitro (Sarcoma-180; in vitro): does not suppress the growth
bacteriocidal activity of the antibiotic with the test compound [3]: improved bacteriocidal activity
bacteriocidal activity of the antibiotic with the test compound [4]: improved bacteriocidal activity
volume of hind paws (Adjuvant arthritis; 0.1 mg/kg oral, day 24 after the sensitization): 3.524 ± 0.170 mL
volume of hind paws (Adjuvant arthritis; 0.1 mg/kg oral, day 31 after the sensitization): 3.762 ± 0.216 mL
volume of hind paws (Adjuvant arthritis; 1 mg/kg oral, day 24 after the sensitization): 3.214 ± 0.161 mL
volume of hind paws (Adjuvant arthritis; 1 mg/kg oral, day 31 after the sensitization): 3.289 ± 0.223 mL
volume of hind paws (Adjuvant arthritis; 5 mg/kg oral, day 24 after the sensitization, ** P<0.01): 3.175 ± 0.100 mL
volume of hind paws (Adjuvant arthritis; 5 mg/kg oral, day 31 after the sensitization, * P<0.05): 3.102 ± 0.141 mL
volume of hind paws (Adjuvant arthritis; 10 mg/kg oral, day 24 after the sensitization, ** P<0.01): 3.027 ± 0.126 mL
volume of hind paws (Adjuvant arthritis; 10 mg/kg oral, day 31 after the sensitization, * P<0.05): 3.121 ± 0.176 mL
volume of hind paws (Adjuvant arthritis; 100 mg/kg oral, day 24 after the sensitization): 3.350 ± 0.168 mL
volume of hind paws (Adjuvant arthritis; 100 mg/kg oral, day 31 after the sensitization): 3.482 ± 0.170 mL
activity for treating adjuvant arthritis of rat (Adjuvant arthritis; 5 or 10 mg/kg oral): significant level of activity
degree of promotion (S.I. value) of blastogenesis (lymphocites [5]; rat, oral 5 or 50 mg/kg, one day before Concanavallin A): about twice as large as that of the control
activity of Concanavallin A (lymphocites [5]; rat, oral 5 or 50 mg/kg, one day before Concanavallin A, vs control): increased to about double
improvement of the activity of Concanavallin A (lymphocites [5]; rats or mice, four days before Concanavallin A): the improvement of the activity was observed
